The values below are quoted from earlier work in publication PMC10656230, “Disruption of the productive encounter complex results in dysregulation of DIAPH1 activity” (The Journal of Biological Chemistry, 2023).

In one data set the test system is DID. As to conditions: DAD without RRKR motif vs. An excerpt: Chemical shifts (δ) and cross peak intensities (I) were monitored by using heteronuclear single–quantum coherence (^1H-^15N HSQC) NMR spectroscopy ([38]) (Fig. S1A). […] Negligible perturbations occurred beyond a 1:1 mole ratio, indicating a 1:1 stoichiometry for the complex. […] H ...
The subject of a further data set is DID E273K. The note with it: DID mutation E273K, no 2- to 3-fold decrease. An excerpt: (§1) Our findings identify E326 and E327 as critical for binding (Figs. 3D, 4 and S1). The E326 and E327 acidic patch is located greater than 30 Å away from the Rho GTPase binding site and represents a new surface for DIAPH1 regulation (Fig. S4B) ([25]). Interruption of the electrostatic interaction between the basic RRKR motif an ...

In the next data set the test system is DID R278E. The note with it: DID mutation R278E, no 2- to 3-fold decrease.
From the text: as §1

Turning to DETGVMDSLLEALQSGAAFRRKRGPRQAN [DAD], the “decrease in DID-DAD binding affinity on removal of the RRKR motif of DAD” value in the data set with DID is on record as 5 fold. In addition, the “decrease in DID-DAD binding affinity” value with DID E273K and in the data set on DID R278E was “did not” throughout.
